According to patent US7906620B2, “Tumor associated antigen, peptides thereof, and use of same as anti-tumor vaccines” (Yeda Research and Development Co. Ltd., priority 2002, dated 2011):

Legend:
HLA-A2.1 = target: T1, HLA-A2.1 (Homo sapiens, UniProt P04439, D140Y/D185E/D98H/E176V/E277Q/G131W/G231S/I119V/I121R/I166T/I218V/L300P/L318F/N151K/N90K/P208A/P217A/Q86G/Q94H/R138H/R169H/T345S); assay: T2 stabilization assay (peptide binding to HLA-A2.1); conditions: acid stripped T2 cells, peptide and recombinant β2m, BB7.2 mAb, FACS
T1 construct: endogenous in cells; host or cells: T2 cells (TAP-2-deficient lymphoblastoid line)
Method: T2 cells were acid stripped and incubated with the indicated peptide and recombinant β2m or with β2m alone as a negative control. FIG. 5D is the tyrosinase peptide as the positive control. Cells were stained with BB7.2 mAb and analyzed by FACS. The number of positive cells above control level is indicated for each of the peptides.
(§1) Intrigued by this finding, the laboratory of the present inventors focused on the 1-8D peptides. Peptide binding to HLA-A2.1 was verified by a T2 stabilization assay (Firat et al., 1999). […] 1-8D peptides were next tested for induction of anti-HCT/HHD CTL responses by vaccinating HHD mice with the 1-8D peptides (Carmon et al., 2000).

peptide pulsed T2 cells = assay: In vitro priming of human CTL precursors with 1-8D peptides; assay type: cell-based; conditions: for activating peripheral CTLp to lyse target cells in a peptide specific manner: PBMC of two normal donors, after 4 consecutive stimulations
Method: FIG. 10 are graphs showing PMBC from 4 donors checked for existence of CTL precursors. Left hand panel-peptide 1-6 stimulated CTLp. Middle Panel-peptide 3-5 stimulated CTLp. Right hand panel-peptide 3-7 stimulated CTLp. […] PBMC were supplemented with IL-7, and two days later IL-2 was added and renewed every three days. The rest of the stimulations were done every 7 days over peptide pulsed monocytes. Seven days after the third stimulation, lymphocytes were harvested and a cytolytic assay was performed using peptide pulsed (closed squares, closed circles, open triangles, X signs) or non-pulsed T2 cells (open circles) as targets. Closed squares represent CTLp from donor A, closed circles represent CTLp from donor B, open triangles represent CTLp from donor C, Xs represent CTLp from donor D, and open circles represent non-pulsed T2 cells.
In vitro priming of human CTL. Leukopheresis products of four healthy donors were obtained from Barzilai Medical Center (Ashkelon, Israel) according to Declaration of Helsinki Principles. PMBC were isolated by centrifugation on Ficoll-Plaque Plus gradients (Amersham, Sweden). The procedure was carried out according to Thurner et al., with minor modifications. Briefly, in vitro priming was done over autologous DC that were prepared from monocytes by IL-4 and GM-CSF treatment and matured with a IL-1β, IL-6, TNF-α and PGE2 cocktail. DC were pulsed with the synthetic peptides and PBMC were supplemented with IL-7. Two days later IL-2 was added and renewed every three days. The rest of the stimulations were done every 7 days over peptide pulsed monocytes. […]

[1] = system: peptide loaded on labeled RMA-S/HHD; assay: Immunogenicity of peptides in HHD mice: vaccination with peptide-loaded RMA-S/HHD/B7.1, cytolytic assay on peptide-loaded targets; assay type: in vivo; conditions: for Score: immunogenic score: ratio of specific lysis, specific peptide vs tyrosinase peptide loaded on RMA-S/HHD, average of two experiments, positive above 125%; for antigenic / immunogenic in HHD mice: mouse, in vivo
Method: FIG. 4 is a graph of the results of in vitro cytolytic assays. Seven peptides are immunogenic. Peptides were loaded on RMA-S/HHD/B7.1, washed and irradiated. HHD mice were immunized three times as described in the materials and methods section in Example 1. In vitro cytolytic assays were performed on the relevant peptide as target and on an irrelevant peptide. The score was deduced from the ratio of the specific lysis that were obtained. The positive peptides (above 125%) are marked by arrows. Peptides 1-6, 3-5 and 3-7 are derived from “Human 1-8D gene”.
(§2) Vaccination. HHD mice were immunized i.p. 3 times at 7-day intervals with 2×10^6 irradiated (5000 rad) tumor cells, or irradiated peptide-loaded RMA-S/HHD/B7.1 transfectants. Spleens were removed on day 10 after the last immunization, and splenocytes were restimulated in vitro, either with irradiated tumor cells or with one third of the lymphocytes pre-pulsed with 100 μM synthetic peptides in opti-MEM (Life Technologies) for 2 hr at 37° C., 5% CO2. Restimulated lymphocytes were cultured in RPMI-HEPES medium containing 10% FCS, 2 mM glutamine, combined antibiotics, 1 mM sodium pyruvate, 25 mM HEPES, 5×10^−5M PME and 1% NEAA for 5 days. Viable cells (effectors) were separated by Lympholyte-M (Cedarlane, Hornby, Canada) gradient, resuspended and admixed at different ratios with 5,000 ^35S-methionine-labeled target cells. Cytolytic assays were carried out as described previously in Carmon et al., 2000. Extracts of tumor peptides or normal colon peptides were prepared from a pool of 6 post-surgical colon carcinoma specimens as described before Carmon et al., 2000.
The antigenic peptides were tested for their specific immunogenicity in HHD mice. HHD mice were vaccinated with RMA-S/HHD/B7.1 cells loaded with each of the peptides (listed in Table 3), their spleens were removed, and resensitized in vitro with synthetic peptides for four days. On the fifth day, a cytolytic assay was performed on two targets, either the peptide itself loaded on labeled RMA-S/HHD or the tyrosinase peptide as a negative control. The ratio of specific lysis between specific and tyrosinase peptides was defined as “immunogenic score”. This experiment was repeated twice and the average score of each of the antigenic peptides is specified (Table 3 and FIG. 4). The horizontal line in FIG. 4 represents the limit of 95% significance as defined by assuming normal distribution of scores.

HCT/HHD cells [2] = assay: Adoptive transfer of anti-1-8D peptide lymphocytes to nude mice bearing HCT/HHD footpad tumors; assay type: in vivo, CD1-nude mice; conditions: for day from which retardation in tumor growth is significant (P<0.05): 10^7 restimulated lymphocytes i.v. three days post challenge, IL-2, one tailed student t-test
Method: FIG. 9 is a graph showing that nude mice were challenged in the foot pad with HCT/HHD cells. Lymphocyte from vaccinated HHD mice were transferred together with IL-2 to the tumor bearing mice and the growth of the tumor was monitored twice a week.
Adoptive transfer. CD1-nude mice were challenged in the footpad with 3×10^6 HCT/HHD cells. Three days later, 10^7 viable re-stimulated effector cells were injected i.v. to the tail vein. One thousand units of IL-2, was injected i.p. twice a day for 7 consecutive days post transfer. Tumor growth was monitored by measuring the diameter of the footpad with calipers. Mice were sacrificed when one of the tumor diameters reached 10 mm.
The anti-tumor efficacy of anti-1-8D peptide CTL was evaluated next. A transfer model, in which HCT/HHD cells were inoculated to the footpads of nude mice, was established. Three days post footpad challenge, in vitro restimulated HHD lymphocytes were transferred i.v. and the tumor growth was monitored.

[3] = system: EL4/HHD/1-8D transfected cells; assay: Lysis of 1-8D transfectants by CTL from peptide-immunized HHD mice; assay type: in vivo; conditions: high background lysis of EL4/HHD
Method: FIGS. 8A-8C are graphs that show 1-8D peptides 1-6 (FIG. 8A), 3-5 (FIG. 8B), and 3-7 (FIG. 8C) mount CTL responses that lyse 1-8D transfectants. Each peptide was loaded on RMA-S/HHD/B7.1 and used to immunize HHD mice. In vitro cytolytic assays were performed using EL4/HHD cells (open circles) and EL4/HHD/1-8D transfected cells (dark circles) as a target. The specific lysis of a representative experiment out of three is shown.
The 1-8D peptides are presented by HHD molecules on HCT/HHD cells. […] The plasmid was stably transfected into EL4 cells together with an HHD plasmid. HHD mice were immunized with the 1-8D peptides and a cytolytic assay was performed. The susceptibility of EL4/HHD/1-8D transfectant and the parental EL4/HHD cells to be lysed by anti-1-8D lymphocytes were compared. FIG. 8A-8C summarizes the results of these cytolytic experiments.

HCT/HHD cells [4] = assay: Anti-HCT/HHD CTL response after vaccination of HHD mice with 1-8D peptides; assay type: in vivo; conditions: for lysis of HCT/HHD by peptide-induced CTL: HHD mice immunized with peptide loaded on RMA-S/HHD/B7.1; for ranking as vaccine against HCT/HHD (in vitro cytolytic capacity): mouse, in vivo
Method: FIG. 6 is a graph showing that the 1-8D peptides can mount anti-HCT/HHD CTL responses. HHD mice were immunized with HCT/HHD/B7.1 and with peptide loaded on RMA-S/HHD/B7.1. In vitro cytolytic assays were performed using HCT/HHD cells as targets. The specific lysis at E:T in 50:1 ratio of a representative experiment out of three is shown.
as §2, §1

EL4/HHD cells = assay: Immunogenicity of PSGR-derived peptides in HHD mice (peptide-loaded dendritic cells); conditions: mouse, in vivo
Method: FIGS. 15A and 15B are graphs showing immunogenicty of PSGR-derived peptides in HHD mice. The mice were immunized i.v. three time with 1×10^6 syngeneic dendritic cells (DCs) loaded with either PSGR-1 or PSGR-6 peptides. Spleens were removed on day 10 after the last immunization, and splenocytes were re-stimulated in vitro by 100 μM PSGR-1 (FIG. 15A) or PSGR-6 (FIG. 15B) derived peptides in OPTIMEM for 2 h at 37° C., 5% CO2, followed by restimulation of lymphocytes for 4 more days in RPMI-HEPES. CTL assays were performed on day 5 with individual PSGR-1 or PSGR-6 derived peptides loaded on EL4/HHD cells as targets. Non-relevant PAP derived peptide-loaded EL4/HHD cells were used as negative controls. 100:1, 50:1, 25:1, 12.5:1 effector-to-target ratios are shown.
The immunogenicity of the peptides, namely their potential to induce T cell responses, was subsequently examined in an in vivo model. A strain of β2 microglobulin (β2m) HLA-A2.1 Monochain Transgenic, H-2D^b−/−Xβ2m^−/− double knockout mice (HHD mice) was used. Upon vaccination of these mice, a repertoire of human HLA-A2.1 restricted CTLs is produced. The lysis patterns of each of the individual peptides loaded on target cells were first evaluated following immunization with syngeneic dendritic cells pulsed with pools of 2-4 synthetic peptides derived from each examined protein.

[5] = system: peptide loaded on labeled RMA-S/HHD; conditions: F. A. Lemonnier, unpublished; cited from earlier work
[6] = healthy donor PBMC, peptide pulsed vs non-pulsed T2 targets

EMKEEQEV (listed as Homo sapiens) [Peptide 1-6, Human 1-8D gene from interferon inducible gene 20-28]
binding to HLA-A2.1 (stabilization of HLA-A2 on T2 cells) (HLA-A2.1): stabilize HLA-A2 on T2 cells | activating peripheral CTLp to lyse target cells in a peptide specific manner (peptide pulsed T2 cells): incompetent | CTL activity of stimulated CTLp, donor A (peptide pulsed T2 cells; [6]): not | CTL activity of stimulated CTLp, donor B (peptide pulsed T2 cells; [6]): low yet specific CTL activity | CTL activity of stimulated CTLp, donor C (peptide pulsed T2 cells; [6]): not | Score [1]: 181.3 | antigenic / immunogenic in HHD mice [1]: antigenic and immunogenic | day from which retardation in tumor growth is significant (P<0.05) (HCT/HHD cells [2]): 13 days | lysis of 1-8D transfectant compared to EL4/HHD cells [3]: better lysed | lysis of HCT/HHD by peptide-induced CTL (HCT/HHD cells [4]): lyse the human colon carcinoma line HCT-15-HHD | ranking as vaccine against HCT/HHD (in vitro cytolytic capacity) (HCT/HHD cells [4]): intermediate

LILGIFMTI (listed as Homo sapiens) [Peptide 3-5, Human 1-8D gene from interferon inducible gene 110-118]
binding to HLA-A2.1 (stabilization of HLA-A2 on T2 cells) (HLA-A2.1): stabilize HLA-A2 on T2 cells | activating peripheral CTLp to lyse target cells in a peptide specific manner (peptide pulsed T2 cells): incompetent | CTL activity of stimulated CTLp, donor B (peptide pulsed T2 cells; [6]): low yet specific CTL activity | CTL activity of stimulated CTLp, donor C (peptide pulsed T2 cells; [6]): not and low yet specific CTL activity | Score [1]: 176.7 | antigenic / immunogenic in HHD mice [1]: antigenic and immunogenic | day from which retardation in tumor growth is significant (P<0.05) (HCT/HHD cells [2]): 11 days | lysis of 1-8D transfectant compared to EL4/HHD cells [3]: roughly equal | lysis of HCT/HHD by peptide-induced CTL (HCT/HHD cells [4]): lyse the human colon carcinoma line HCT-15-HHD | ranking as vaccine against HCT/HHD (in vitro cytolytic capacity) (HCT/HHD cells [4]): most effective

GLEKAHFWV (listed as Homo sapiens) [PSGR-6, PSGR start position 18]
level of immunogenicity in HHD mice (EL4/HHD cells): low

KCLNIWALI (listed as Homo sapiens) [Peptide 3-7, Human 1-8D and 1-8U genes from interferon inducible genes 103-111]
binding to HLA-A2.1 (stabilization of HLA-A2 on T2 cells) (HLA-A2.1): stabilize HLA-A2 on T2 cells | activating peripheral CTLp to lyse target cells in a peptide specific manner (peptide pulsed T2 cells): highly efficient | CTL activity of stimulated CTLp, donor A (peptide pulsed T2 cells; [6]): high CTL activity | CTL activity of stimulated CTLp, donor B (peptide pulsed T2 cells; [6]): high CTL activity | CTL activity of stimulated CTLp, donor C (peptide pulsed T2 cells; [6]): low activity | CTL activity of stimulated CTLp, donor D (peptide pulsed T2 cells; [6]): low activity | Score [1]: 487.5 | antigenic / immunogenic in HHD mice [1]: antigenic and immunogenic | day from which retardation in tumor growth is significant (P<0.05) (HCT/HHD cells [2]): 13 days | effect on in vivo growth of HCT/HHD (HCT/HHD cells [2]; adoptive transfer, nude mice): least effective | lysis of 1-8D transfectant compared to EL4/HHD cells [3]: better lysed | lysis of HCT/HHD by peptide-induced CTL (HCT/HHD cells [4]): lyse the human colon carcinoma line HCT-15-HHD | ranking as vaccine against HCT/HHD (in vitro cytolytic capacity) (HCT/HHD cells [4]): least effective

TLNAWVKVV [HIV derived peptide]
immunogenicity in the HHD model [5]: weak immunogen
